Laboratory results published in PubChem BioAssay AID248 (DTP/NCI, 2004).
Where “and” joins values, the source holds several entries; their conditions need not be identical. Equal values may be shown once. Inconclusive results and toxic doses are left out. Rule as the data show it: active = T/C of 150% or more; inactive = T/C below 125%.

System: L1210 leukemia ip in BDF1 mice, survival T/C
Test: NCI In Vivo Anticancer Drug Screen. Data for tumor model L1210 Leukemia (intraperitoneal) in B6D2F1 (BDF1) mice
Conditions: endpoint: mean survival time, higher = longer survival
How it was run: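 Each compound was tested against a transplantable tumor grown in mice. The endpoint was survival, with treated animals benchmarked against vehicle controls as a simple ratio.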

[1] = dose: 100.0 mg/kg/injection, schedule: Q01DX009 (ip), vehicle: Klucel (hydroxypropylcellulose) (HPC)
[2] = dose: 100.0 mg/kg/injection, schedule: Q01DX009 (ip), vehicle: saline
[3] = dose: 200.0 mg/kg/injection, schedule: Q01DX009 (ip), vehicle: Klucel (hydroxypropylcellulose) (HPC)
[4] = dose: 200.0 mg/kg/injection, schedule: Q01DX009 (ip), vehicle: saline
[5] = dose: 400.0 mg/kg/injection, schedule: Q01DX009 (ip), vehicle: Klucel (hydroxypropylcellulose) (HPC)
[6] = dose: 400.0 mg/kg/injection, schedule: Q01DX009 (ip), vehicle: saline
[7] = dose: 50.0 mg/kg/injection, schedule: Q01DX001 (ip), vehicle: saline
[8] = dose: 100.0 mg/kg/injection, schedule: Q01DX001 (ip), vehicle: saline
[9] = dose: 100.0 mg/kg/injection, schedule: Q04DX002 (ip), vehicle: saline
[10] = dose: 200.0 mg/kg/injection, schedule: Q04DX002 (ip), vehicle: saline
[11] = dose: 400.0 mg/kg/injection, schedule: Q04DX002 (ip), vehicle: saline
[12] = dose: 100.0 mg/kg/injection, schedule: Q01DX009 (ip), vehicle: saline with Tween-80
[13] = dose: 200.0 mg/kg/injection, schedule: Q01DX009 (ip), vehicle: saline with Tween-80
[14] = dose: 400.0 mg/kg/injection, schedule: Q01DX009 (ip), vehicle: saline with Tween-80
[15] = dose: 100.0 mg/kg/injection, schedule: Q04DX003 (ip), vehicle: saline with Tween-80
[16] = dose: 200.0 mg/kg/injection, schedule: Q04DX003 (ip), vehicle: saline with Tween-80
[17] = dose: 400.0 mg/kg/injection, schedule: Q04DX003 (ip), vehicle: saline with Tween-80
[18] = dose: 100.0 mg/kg/injection, schedule: Q01DX001 (ip), vehicle: saline with Tween-80
[19] = dose: 200.0 mg/kg/injection, schedule: Q01DX001 (ip), vehicle: saline with Tween-80
[20] = dose: 400.0 mg/kg/injection, schedule: Q01DX001 (ip), vehicle: saline with Tween-80
[21] = dose: 50.0 mg/kg/injection, schedule: Q01DX009 (ip), vehicle: Klucel (hydroxypropylcellulose) (HPC)

Measured: T/C

NCS(=O)(=O)O
inactive: dose: 25.0 mg/kg/injection, schedule: Q01DX001 (ip), vehicle: saline with Tween-80 107 % of control | dose: 50.0 mg/kg/injection, schedule: Q01DX001 (ip), vehicle: saline with Tween-80 107 % of control | [1] 98 % of control | [2] 100 % of control | [3] 98 % of control | [4] 93 % of control | [5] 95 % of control | [6] 88 % of control

C=C1C(=O)OC2CCC(O)C12 (centres undefined)
inactive: dose: 25.0 mg/kg/injection, schedule: Q01DX001 (ip), vehicle: saline 94 % of control | [7] 108 % of control | [8] 105 % of control

CC1CN=C(c2ccc(O)c(O)c2)S1 (centres undefined)
inactive: [9] 107 % of control | [10] 107 % of control | [11] 100 % of control

c1ccc(Sc2cccc3ccccc23)cc1
inactive: [12] 109 % of control | [13] 103 % of control | [14] 103 % of control

Nc1nc(C=O)c(CCc2ccccc2)c(=O)[nH]1
inactive: [15] 100 % of control | [16] 97 % of control

CC1=CCCC2(CCC3(C)CC32)C1(C)C (centres undefined)
inactive: dose: 100.0 mg/kg/injection, schedule: Q01DX009 (ip), vehicle: acetone 89 % of control | dose: 200.0 mg/kg/injection, schedule: Q01DX009 (ip), vehicle: acetone 95 % of control

O=C(O)C1OC1c1ccccc1 (centres undefined)
inactive: [2] 107 % of control | [15] 98 % of control | [4] 109 % of control | [16] 98 % of control | [6] 104 % of control | [17] 100 % of control

CCC(=O)Nc1cccc(OP(=O)(N(C)C)N(C)C)c1
inactive: [18] 96 % of control | [19] 102 % of control | [20] 88 % of control

CCCCCCCCCCC1CCCC1
inactive: dose: 100.0 mg/kg/injection, schedule: Q04DX002 (ip), vehicle: saline with Tween-80 94 % of control | dose: 200.0 mg/kg/injection, schedule: Q04DX002 (ip), vehicle: saline with Tween-80 98 % of control | dose: 400.0 mg/kg/injection, schedule: Q04DX002 (ip), vehicle: saline with Tween-80 94 % of control

CCCCCCCCCC(N)=O
inactive: [21] 97 % of control | dose: 100.0 mg/kg/injection, schedule: Q01DX001 (ip), vehicle: Klucel (hydroxypropylcellulose) (HPC) 110 % of control | [1] 90 % of control | dose: 200.0 mg/kg/injection, schedule: Q01DX001 (ip), vehicle: Klucel (hydroxypropylcellulose) (HPC) 100 % of control | dose: 400.0 mg/kg/injection, schedule: Q01DX001 (ip), vehicle: Klucel (hydroxypropylcellulose) (HPC) 93 % of control

O=S(=O)(Nc1c(O)ccc2ccccc12)c1ccccc1
inactive: [12] 95 % of control | [13] 93 % of control | [14] 90 % of control

CC(C)C(CCN1CCCCC1)(CN=C(N)N)c1cccc2ccccc12 (centres undefined)
inactive: dose: 5.0 mg/kg/injection, schedule: Q01DX009 (ip), vehicle: saline 99 % of control | dose: 6.25 mg/kg/injection, schedule: Q04DX002 (ip), vehicle: saline 100 % of control | dose: 10.0 mg/kg/injection, schedule: Q01DX009 (ip), vehicle: saline 100 % of control | dose: 12.5 mg/kg/injection, schedule: Q04DX002 (ip), vehicle: saline 93 % of control | dose: 20.0 mg/kg/injection, schedule: Q01DX009 (ip), vehicle: saline 101 % of control | dose: 25.0 mg/kg/injection, schedule: Q04DX002 (ip), vehicle: saline 97 % of control

ClCCN=Cc1ccc(Cl)cc1
inactive: [1] 96 % of control | dose: 100.0 mg/kg/injection, schedule: Q04DX002 (ip), vehicle: Klucel (hydroxypropylcellulose) (HPC) 96 % of control | [3] 91 % of control | dose: 200.0 mg/kg/injection, schedule: Q04DX002 (ip), vehicle: Klucel (hydroxypropylcellulose) (HPC) 100 % of control | [5] 96 % of control | dose: 400.0 mg/kg/injection, schedule: Q04DX002 (ip), vehicle: Klucel (hydroxypropylcellulose) (HPC) 100 % of control

COCCN1CCC(C)(CO)C1 (centres undefined)
inactive: dose: 100.0 mg/kg/injection, schedule: Q04DX003 (ip), vehicle: saline 87 % of control | dose: 200.0 mg/kg/injection, schedule: Q04DX003 (ip), vehicle: saline 93 % of control | dose: 400.0 mg/kg/injection, schedule: Q04DX003 (ip), vehicle: saline 92 % of control

O=C1CC(=O)c2ccccc21
inactive: [15] 98 % of control | [16] 92 % of control | [17] 93 % of control

CS(=O)(=O)N1C=CC=CC=C1
inactive: dose: 12.5 mg/kg/injection, schedule: Q01DX009 (ip), vehicle: Klucel (hydroxypropylcellulose) (HPC) 91 % of control | dose: 12.5 mg/kg/injection, schedule: Q04DX003 (ip), vehicle: Klucel (hydroxypropylcellulose) (HPC) 96 % of control | dose: 25.0 mg/kg/injection, schedule: Q01DX009 (ip), vehicle: Klucel (hydroxypropylcellulose) (HPC) 95 % of control | dose: 25.0 mg/kg/injection, schedule: Q04DX003 (ip), vehicle: Klucel (hydroxypropylcellulose) (HPC) 98 % of control | [21] 95 % of control | dose: 50.0 mg/kg/injection, schedule: Q04DX003 (ip), vehicle: Klucel (hydroxypropylcellulose) (HPC) 105 % of control

Nc1ccc(Cl)cc1C(=O)c1ccccc1
inactive: dose: 25.0 mg/kg/injection, schedule: Q04DX002 (ip), vehicle: DMSO 95 % of control | dose: 50.0 mg/kg/injection, schedule: Q04DX002 (ip), vehicle: DMSO 89 % of control | dose: 100.0 mg/kg/injection, schedule: Q04DX002 (ip), vehicle: DMSO 106 % of control and 88 % of control

CC(=O)Nc1ccc(O)cc1
inactive: dose: 100.0 mg/kg/injection, schedule: Q01DX001 (ip), vehicle: carboxymethylcellulose (CMC) 93 % of control | [9] 116 % of control | dose: 100.0 mg/kg/injection, schedule: Q04DX003 (ip), vehicle: Klucel (hydroxypropylcellulose) (HPC) 97 % of control | dose: 200.0 mg/kg/injection, schedule: Q01DX001 (ip), vehicle: carboxymethylcellulose (CMC) 96 % of control | [10] 100 % of control | dose: 200.0 mg/kg/injection, schedule: Q04DX003 (ip), vehicle: Klucel (hydroxypropylcellulose) (HPC) 104 % of control | dose: 400.0 mg/kg/injection, schedule: Q01DX001 (ip), vehicle: carboxymethylcellulose (CMC) 107 % of control | [11] 88 % of control | dose: 400.0 mg/kg/injection, schedule: Q04DX003 (ip), vehicle: Klucel (hydroxypropylcellulose) (HPC) 111 % of control

N#Cc1c(Br)n(C2OC(CO)C(O)C2O)c2ncncc12 (centres undefined)
inactive: dose: 100.0 mg/kg/injection, schedule: Q01DX005 (ip), vehicle: saline 114 % of control | dose: 200.0 mg/kg/injection, schedule: Q01DX005 (ip), vehicle: saline 114 % of control

COCc1ccc(C(=O)O)cc1
inactive: dose: 100.0 mg/kg/injection, schedule: Q01DX009 (ip), vehicle: gum acacia 101 % of control | dose: 200.0 mg/kg/injection, schedule: Q01DX009 (ip), vehicle: gum acacia 97 % of control | dose: 400.0 mg/kg/injection, schedule: Q01DX009 (ip), vehicle: gum acacia 101 % of control

CC(C)(C)NCC1C(c2ccccc2)C1c1ccccc1 (centres undefined)
inactive: dose: 25.0 mg/kg/injection, schedule: Q04DX002 (ip), vehicle: Klucel (hydroxypropylcellulose) (HPC) 92 % of control | dose: 50.0 mg/kg/injection, schedule: Q04DX002 (ip), vehicle: Klucel (hydroxypropylcellulose) (HPC) 88 % of control

OCC(O)C(O)C(O)C(c1ccc(Cl)cc1)c1ccc(Cl)cc1 (centres undefined)
inactive: [7] 104 % of control and 103 % of control and 101 % of control | [8] 102 % of control and 103 % of control and 97 % of control | dose: 200.0 mg/kg/injection, schedule: Q01DX001 (ip), vehicle: saline 98 % of control and 101 % of control and 97 % of control | dose: 400.0 mg/kg/injection, schedule: Q01DX001 (ip), vehicle: saline 96 % of control and 91 % of control and 101 % of control

CC1(C)OC2OC(CO)C(O)C(O)C2O1 (centres undefined)
inactive: [9] 94 % of control | [10] 94 % of control | [11] 94 % of control

CCC(O)(/C(=N/Nc1ccc([N+](=O)[O-])cc1[N+](=O)[O-])c1ccccc1)c1ccccc1 (centres undefined)
inactive: [18] 94 % of control | [19] 89 % of control | [20] 89 % of control
